The values below come from patent publication US12691100B2, “NMT inhibitor treatment of a senescence-associated disease or disorder of the liver” (Imperial College Innovations Limited, priority 2020, dated 2026).

In assay [1] the test system is senescent preneoplastic hepatocytes. The assay can be described thus: Model of liver cancer initiation (Nras G12V by hydrodynamic tail vein injection). The assay is classed as in vivo, C57BL/6J mice. To be noted: 25 mg/kg i.p. daily for 4 days from day 5 after HDTVI; FIGS. 16C-E. How it is done:
All mice were purchased from Charles River UK, Ltd. For Hydrodynamic tail vein injection (HDTVI) experiments female C57BL/6J mice aged 5-6 weeks were given 20 μg of Nras^G12V & gaussia luciferase (Gluc) expressing plasmid and 5 μg of SB13 transposase-expressing plasmid. Plasmids were prepared using GeneElute HP Endotoxin-free Plasmid Maxiprep kit (Sigma). Purified plasmids were diluted in sterile-filtered PBS to a total volume of 10% mouse body weight and injected into mouse lateral tail vein within a 10 s window. 4 days after HDTVI, mice were bled to assess presence of gaussia luciferase signal in the blood serum and used to randomize/equalize groupings for vehicle and drug treated groups. […]
Immunohistochemical staining—Slides were deparaffinised by washing slides twice in Histoclear™ for 5 min each, followed by 5 min washes in decreasing concentrations of ethanol with 100%, 75%, 50% & 25% ethanol washes before a final wash 5 min in dH2O. […] Signal development was stopped when visible positive cells could be detected on a microscope, by washing slides in dH2O. […]
Slide image acquisition & analysis—Slides were acquired using a 20× brightfield objective on a Zeiss Axio Scan Z.1 slide scanner and analysis performed using QuPath version 0.2.0-m9 using in built positive cell detection tool to segment Haematoxylin stained nuclei and quantify mean intensity of DAB. […]

Assay [2] in a line: Blood markers (Vetscan) in a separate cohort of old mice. It counts as in vivo, female C57/BL6 mice. Conditions: ~19 mo females, before 4th round, Compound 2 10 mg/kg, Compound 3 25 mg/kg, versus vehicle. How it is done:
Blood was collected prior to each round of injection for physiological assessments. Mice were allowed to rest 4 weeks prior to being culled and organs collected for freezing in OCT, paraffin embedding and snap-freezing for RNA extraction.
For analysis of immune cell composition in whole blood, tail-vein blood was collected 2 days after last treatment. Whole blood was diluted in saline to a volume of […] and ran on a Sysmex XE2100 automated cell counter. Blood glucose levels were determined by collecting whole-blood from tail vein into heparinised tubes (Abraxis), 120-140 μL of whole-blood to be loaded onto a comprehensive diagnostic profile reagent rotor (Abraxis) and run on a VetScan VS2 Chemistry Analyzer (Abraxis: 500-7123).
Further experiments were performed on a separate cohort of old mice. […] This regimen was repeated 4 more times and blood was collected for Vetscan measurements prior to the 4th round of treatment (FIG. 19). At that stage, ~19 mo females presented elevated levels of ALT, amylase and glucose in blood when compared with young mice (FIG. 20A).

In assay [3] the test system is HCT116 colon cancer cells. The assay can be described thus: Senolytic survival assay, chemotherapy-induced senescence in cancer cells. It counts as cell-based, human. Conditions: second experiment: doxorubicin 100 nM, etoposide 2 μM or cisplatin 100 μM, or DMSO; replenished after 72 h, 48 h more; FIGS. 7A-C. How it is done: IMR90 cells were used to generate inducible ER:RAS (hereinafter iRAS) cells to model Oncogene induced senescence (OIS), through retroviral infection of pLNC-ER:RAS-neo into IMR90 cells followed by selection with Neomycin. IMR90 cells containing the pLNC-ER:RAS plasmid backbone pLXSN were infected in parallel to assess leakiness in the pLNC-ER:RAS system. Treatment with 100 nM 4OHT (Sigma, in DMSO) was used to induce IMR90 ER:RAS cells to undergo oncogene induced senescence (OIS). Therapy induced senescence (TIS) was induced in IMR90 cells by treatment with 33 μM (50 ug/ml) bleomycin sulphate (Generon, HY-17565) for 24 hours, 20 μM palbociclib (Selleckchem, S1116) for 7 days or 100 nM doxorubicin (Cayman chemical, 15007) for 7 days. Senescence was induced in SK-HEP-1 cells by treatment with 2 μM etoposide (Sigma-Aldrich, E1383) for 7 days (FIGS. 4A-C). HCT-116 senescence was induced by 250 nM treatment with doxorubicin (Cayman chemical, 15007) for 48 hours followed by 5 days culture in media without chemotherapy (FIG. 5), or by treatment with 100 nM doxorubicin, 2 μM etoposide or 100 μM cisplatin for 3 days followed by 4 days culture in media without chemotherapy (FIGS. 6A-7C). Senescence was induced in MCF7 by 200 nM treatment with doxorubicin for 7 days, 2 μM etoposide for 7 days or 10 μM cisplatin for 7 days (FIGS. 8A-9C).
High-throughput microscopy survival assay—To assess senolytic effect of drugs, cells were cultured for 7 days, culture media was changed to DM0.5 media and drugs in DMSO were added (<5% v/v final concentration), drugs were replenished after 3 days if assay length was longer than 72 h. Wells were fixed in 4% PFA for 1 hour at day 10 to 14, washed 3 times with PBS and then stained with 1 μg/mL DAPI (w/v, PBS) for 10 minutes. Wells were then washed 3 times with PBS. Optionally plates could be stored at 4° C. for up to 2 weeks and DAPI stained. Image acquisition of DAPI stained cells was performed on an automated InCell Analyser 2000 (GE Healthcare®) and high-content analysis on the InCell Investigator 2.7.3 software used to quantify number of DAPI positive cells per well. […] Survival was measured as cell counts relative to DMSO treated quiescent or senescent cells.
In a first experiment, HCT116 colon cancer cells were treated with doxorubicin (to induce senescence), or DMSO (as a control). […] 7 days after adding the drugs with replenishment after 3 days, cells were fixed, imaged and cells numbers were quantified using high throughput microscopy. […]
In a second experiment, HCT116 were treated with doxorubicin, etoposide or cisplatin (to induce senescence) or DMSO (as a control). 7 days after treatment, BrdU incorporation (to assess cell division), SA-β-Galactosidase activity and p21^CIP1 expression (as markers of senescence) were analysed. […]

With `Cc1c(CCOc2cc(Cl)ccc2-c2ccc3ncc(CCN)n3c2)c(C(=O)N(C)C)nn1C` [Compound 3, 4-(2-{2-[3-(2-aminoethyl)imidazo[1,2-a]pyridin-6-yl]-5-chlorophenoxy}ethyl)-N,N,1,5-tetramethyl-1H-pyrazole-3-carboxamide], the “Number of senescent preneoplastic hepatocytes” value in assay [1] is listed as “reduces the number senescent preneoplastic hepatocytes”. In assay [2] (FIG. 20A), the ALT in blood entry was “lower level”. In assay [2] (FIG. 20B), the Amylase in blood result is “lower level”. Further, the Glucose in blood entry in assay [2] (FIG. 20C) is listed as “lower level”. The “Survival, senescent versus control cells” value in assay [3] is “preferentially kill cancer cells that undergo senescence after being treated with doxorubicin, etoposide or cisplatin”.
